From PubChem BioAssay (NCI)
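Tested at 5 concentrations; 48 h exposure; 96-well plates; endpoints linearly interpolated, else capped at highest concentration. At the GI50, growth is halved. Definition used: TGI = concentration required for complete inhibition of growth.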

Key:
Assay in all cases: DTP human tumour cell line panel, 48 h
SK-MEL-5 melanoma = system: SK-MEL-5 melanoma
NCI-H226 lung = system: NCI-H226 lung
SF-268 CNS = system: SF-268 CNS
UACC-62 melanoma = system: UACC-62 melanoma
KM12 colon = system: KM12 colon
CCRF-CEM leukemia = system: CCRF-CEM leukemia
UO-31 renal = system: UO-31 renal
IGROV1 ovarian = system: IGROV1 ovarian
MDA-MB-231 breast = system: MDA-MB-231 breast
BT-549 breast = system: BT-549 breast

Structure (SMILES)	TGI (SK-MEL-5 melanoma) [µM]	TGI (NCI-H226 lung) [µM]	TGI (SF-268 CNS) [µM]	TGI (UACC-62 melanoma) [µM]	TGI (KM12 colon) [µM]	TGI (CCRF-CEM leukemia) [µM]	TGI (UO-31 renal) [µM]	TGI (IGROV1 ovarian) [µM]	GI50 (SK-MEL-5 melanoma) [µM]	GI50 (SF-268 CNS) [µM]	GI50 (UACC-62 melanoma) [µM]	GI50 (KM12 colon) [µM]	GI50 (UO-31 renal) [µM]	GI50 (IGROV1 ovarian) [µM]	GI50 (MDA-MB-231 breast) [µM]	TGI (MDA-MB-231 breast) [µM]	GI50 (CCRF-CEM leukemia) [µM]	GI50 (BT-549 breast) [µM]	TGI (BT-549 breast) [µM]	GI50 (NCI-H226 lung) [µM]
COC(=O)CCC(NC(=S)N/N=C(\C)c1ccc[nH]1)C(=O)OC (configuration not stated)	> 100	> 100	> 100	> 100	> 100	> 100	> 100	> 100	–	–	–	–	–	–	–	–	–	–	–	–
Oc1c(C(Nc2ccccc2Br)c2ccccc2)ccc2cccnc12 (configuration not stated)	7.38	–	17.3	7.33	> 100	–	45.8	22.9	1.72	1.7	1.39	2.47	1.32	3.47	3.9	58.9	–	–	–	–
CCCn1c(SCCSc2c3ccccc3c(-c3nc(F)nc(F)n3)n2CCC)c2ccccc2c1-c1nc(F)nc(F)n1	–	–	> 100	> 100	> 100	> 100	> 100	–	–	–	–	–	–	–	–	–	–	–	–	–
CC1=CC2C(C(O)CC3(C)C2CC(C)C32OCOC23COCO3)C2(C)C/C(=C/O)C(=O)C=C12 (configuration not stated)	3.16	–	3.84	3.83	4.77	3.61	3.04	4	1.74	2.03	1.76	2.39	1.52	2.07	1.75	3.49	1.05	1.62	3.17	–
CN(C)Cc1ccc(-c2cc3onc(-c4ccccc4)c3c(=O)n2C)cc1	47.1	> 100	> 100	75	43.8	–	26.6	> 100	–	–	–	–	–	–	–	> 100	–	–	> 100	–
COc1cc(CNc2nc3c(N)cc(C(F)(F)F)cc3nc2-c2ccccc2)cc(OC)c1OC	> 100	> 100	> 100	> 100	> 100	> 100	85.5	> 100	–	–	–	–	–	> 100	–	–	> 100	–	–	–
C=CC(=O)N1C/C(=C\c2ccc(Cl)c(Cl)c2)C(=O)/C(=C/c2ccc(Cl)c(Cl)c2)C1	1.74	2.73	0.298	0.687	0.642	0.082	0.528	0.263	–	–	–	–	–	–	–	–	–	–	–	–
COc1ccc2c(c1)[n+](=O)c(C(=O)c1cccs1)c(C(F)(F)F)n2[O-]	5.91	> 50	27.4	19.5	25.4	> 50	17.6	–	1.23	3.94	5.76	3.96	1.83	–	7.38	25.4	11	1.3	6.57	9.58
COc1cc2c(cc1OC)C(C(=O)O)C(c1ccccc1)N(C)C2=O (configuration not stated)	> 100	–	> 100	> 100	> 100	> 100	> 100	> 100	–	–	–	–	–	–	–	–	–	–	–	–
CC(C)N(C(=O)c1cccc(C(=O)N(C(C)C)C(C)C)c1)C(C)C	> 100	> 100	> 100	> 100	> 100	> 100	> 100	> 100	–	–	–	–	–	–	–	–	–	–	–	–
Cc1ccc(/C=C/c2c(C(=O)/C=C/c3ccccc3)c(C)nc3ccccc23)cc1	3.11	3.46	5.42	3.16	3.36	> 100	2.52	4.48	1.71	2.06	1.58	1.72	1.26	1.41	–	–	1.69	1.75	4.36	1.69
CCCCCCCCCCCC1=NC(C)(C)CN1C(C)(C)CO	3.3	20.5	11.3	3.54	3.14	12.4	8.42	–	1.79	2.35	1.86	1.72	2.03	–	2.1	4.48	2.94	9.89	22	5.16
C/C(CC(=O)Nc1cccc(Cl)c1C)=N\NC(N)=S	> 100	> 100	> 100	> 100	> 100	> 100	> 100	> 100	–	–	–	–	–	–	–	–	–	–	–	–
O=C1C2C(C(=O)N1c1ccccc1)C1c3ccccc3C2C2C(=O)N(c3ccccc3)C(=O)C21 (configuration not stated)	> 100	> 100	> 100	> 100	> 100	> 100	> 100	> 100	–	–	–	–	–	–	–	–	–	–	–	–
ClC(Cl)=C(Cl)C1(Cl)CC1COCc1ccccc1 (configuration not stated)	31.8	95.6	> 100	69.5	> 100	49	74.1	> 100	–	–	–	–	–	–	–	–	–	–	–	–
C[N+]1=c2c3cccc4cccc(c(=O)n2CC1)c43	32.8	28.7	35.1	31.5	42.3	42.3	32.4	60.5	–	–	–	–	–	–	–	–	–	–	–	–
O=c1cc(-c2ccccn2)[nH]c2cccc(F)c12	> 100	> 100	–	> 100	> 100	> 100	> 100	> 100	–	–	–	–	–	–	–	–	–	–	–	–
CCC[CH2][Sn]([CH2]CCC)([O]C(=O)c1cc(OC)c(OC)cc1OC)[O][Sn]([CH2]CCC)([CH2]CCC)[O]C(=O)c1cc(OC)c(OC)cc1OC	2.15	1.08	0.972	0.715	2.3	0.422	2.6	2.68	0.898	0.27	0.251	0.897	1.33	1.17	–	–	0.0421	–	–	0.507
COc1ccc2c(c1)/C(=C\c1ccncc1)C(=O)N2	27.6	–	37.3	17.2	24	> 100	19.3	9.37	13.1	5.07	4.46	4.83	6.73	4.15	17.2	36.7	3.06	12.5	32.4	–
C/C(CC(=O)NCCc1ccccc1)=N\NS(=O)(=O)c1ccc(C)cc1	> 100	> 100	> 100	> 100	> 100	> 100	> 100	> 100	–	–	–	–	–	–	–	–	–	–	–	–

Structure (SMILES)	TGI (SK-MEL-5 melanoma) [µM]	TGI (NCI-H226 lung) [µM]	TGI (SF-268 CNS) [µM]	TGI (UACC-62 melanoma) [µM]	TGI (KM12 colon) [µM]	TGI (CCRF-CEM leukemia) [µM]	TGI (UO-31 renal) [µM]	TGI (IGROV1 ovarian) [µM]	GI50 (SK-MEL-5 melanoma) [µM]	GI50 (SF-268 CNS) [µM]	GI50 (UACC-62 melanoma) [µM]	GI50 (KM12 colon) [µM]	GI50 (UO-31 renal) [µM]	GI50 (IGROV1 ovarian) [µM]	GI50 (MDA-MB-231 breast) [µM]	TGI (MDA-MB-231 breast) [µM]	GI50 (CCRF-CEM leukemia) [µM]	GI50 (BT-549 breast) [µM]	TGI (BT-549 breast) [µM]	GI50 (NCI-H226 lung) [µM]
CC(C)/C=C1\CCC(CN2CCOCC2)C1=O (configuration not stated)	36.8	94.8	52.5	36.3	23.6	9.51	38.6	20.8	–	–	–	–	–	–	–	–	–	–	–	–
O=C(O)C(Cc1cnc[nH]1)N1C(=O)c2ccccc2C1=O (configuration not stated)	> 100	> 100	> 100	> 100	> 100	–	> 100	> 100	–	–	–	–	–	–	–	> 100	–	–	> 100	–
Cc1cn2c(/C=C3/C(=O)Nc4c3ccc3ccccc43)c(C(F)(F)F)nc2s1	> 100	> 100	> 100	> 100	38.5	39.8	> 100	–	1.03	3.22	0.627	0.493	1.97	–	–	–	2.33	1.18	> 100	17.9
CCOC(=O)NC(=O)c1cn(CCN2CCN(C(=O)CNC(=O)CNC(=O)Cn3cc(C(=O)NC(=O)OCC)c(=O)[nH]c3=O)CC2)c(=O)[nH]c1=O	–	–	> 100	> 100	> 100	> 100	> 100	–	–	–	–	–	–	–	–	–	–	–	–	–
COC1C(OC(=O)c2ccc(C)[nH]2)C(O)C(Oc2ccc3c(O)c(NC(=O)c4c[nH]c(C(=O)Nc5c(O)c6ccc(OC7OC(C)(C)C(OC)C(OC(=O)c8ccc(C)[nH]8)C7O)c(C)c6oc5=O)c4C)c(=O)oc3c2C)OC1(C)C (configuration not stated)	6.51	3.84	7.44	2.37	8.89	10.6	2.94	3.62	–	–	–	–	–	–	–	–	–	–	–	–
N#C/C(=C1\SCC(=O)N1c1ccccc1)c1nc2ccccc2[nH]1	> 100	> 100	> 100	> 100	–	> 100	> 100	> 100	–	–	–	–	–	–	–	–	–	–	–	–
O=C(/C=C(\O)C(=O)O)/C=C(\O)c1ccccc1	> 1	> 100	> 100	> 100	> 100	> 100	> 1	> 100	> 1	> 1	> 1	–	> 1	> 1	–	–	> 1	–	–	> 1
Cc1ccc(S(=O)(=O)N/N=C(\c2nc3ccc(Cl)cc3[nH]c2=O)C(O)c2ccco2)cc1 (configuration not stated)	> 100	> 100	> 100	> 100	> 100	> 100	–	> 100	–	–	–	–	–	–	–	–	–	–	–	–
OC1(c2ccccc2)C2CC=CC2C1(c1ccccc1)c1ccccc1 (configuration not stated)	36.2	–	> 100	> 100	> 100	> 100	> 100	48.9	–	–	–	–	–	–	–	> 100	–	–	> 100	–
COc1ccccc1N=Nc1c(-c2ccccc2)nn(C(=O)CC(=O)Nc2cccc(C)c2)c1-c1ccccc1	97.8	> 100	> 100	> 100	> 100	> 100	> 100	> 100	–	–	–	–	–	–	–	–	–	–	–	–
C#C[C@]1(O)CC[C@H]2[C@@H]3CC=C4c5sc(Nc6cc(F)ccc6F)nc5CC[C@]4(C)[C@H]3CC[C@@]21C	3.16	–	3.37	3.75	4.34	4.81	2.35	3.73	1.74	1.53	1.74	1.97	1.14	1.68	1.82	4.09	0.669	0.661	2.43	–
C#CC1(O)CCC2C3CCc4cc(Oc5nc(F)nc(-c6c7ccccc7c7n6CCS7)n5)ccc4C3CC[C@@]21C (some centres not stated)	45.5	92.5	> 100	86.2	28.3	80.1	78.3	> 100	–	–	–	–	–	–	–	–	–	–	–	–
O=c1cccccc1[O-].O=c1cccccc1[O-].O=c1cccccc1[O-].[Eu+3]	> 100	> 100	> 100	> 100	> 100	78	> 100	> 100	–	–	–	–	–	–	–	–	–	–	–	–
C=CO/N=[N+](\[O-])N(CC)CC	> 100	> 100	> 100	> 100	> 100	> 100	–	> 100	–	–	–	–	–	–	–	> 100	–	–	–	–
[N-]=[N+]=NC(c1cn(C2CC(O)C(CO)O2)c(=O)[nH]c1=O)C(Cl)Br (configuration not stated)	> 100	> 100	–	–	> 100	> 100	> 100	–	–	–	–	–	–	–	–	–	–	–	–	–
Cc1cc(N(CCC#N)S(=O)(=O)c2ccccc2)ccc1/C=C1\N=C(c2ccc(Cl)cc2)OC1=O	> 100	> 100	> 100	> 100	> 100	> 100	> 100	> 100	–	–	–	–	–	–	–	–	–	–	–	–
Cc1c(C(=O)C/C(=N/NC(=O)c2ccccc2)C(=O)Nc2ccc(Cl)cc2)[n+](=O)c2ccccc2n1[O-]	> 100	> 100	> 100	–	> 100	74.4	–	> 100	–	–	–	–	–	–	–	–	–	–	–	–
CC(C)C1CO[C@]2(C)CCC(=O)N12 (some centres not stated)	> 100	> 100	> 100	> 100	> 100	> 100	> 100	> 100	–	–	–	–	–	–	–	–	–	–	–	–
CCCn1c2c(c3c(O)cccc31)C(=O)c1ccccc1-2	> 100	> 100	> 100	69.3	–	> 100	> 100	> 100	11.9	19.5	15.2	–	22.8	10.9	22.1	73.8	> 100	–	–	28.3
CCO/C=C1\N=C(c2ccc(Cl)c(Cl)c2)OC1=O	> 100	> 100	> 100	> 100	> 100	> 100	> 100	> 100	–	–	–	–	–	–	–	–	–	–	–	–
